One series concerns MDCK II cells. Put plainly: cells. The following applies: Canis lupus familiaris, 48 h, read-out: cell vitality.
Series [1] has as its system IAV(H1N1)pdm09 isolate I1. Description: microbe, parasite or virus in culture. It counts as cell-based, influenza A virus. The following applies: for inhibition at 2 µM / inhibition at 20 µM / inhibition at 200 µM: H1N1, 48 h, read-out: anti-IAV activity.
In another series the test system is IAV(H1N1)pdm09. Also on record: method as in PMID 24498245. Conditions: preincubation of particles for 2 h with 50 µg/mL (265 µM); A549 cells; cited from earlier work.
The next series deals with IAV neuraminidase. Conditions: cited from earlier work.
The subject of series [2] is recombinant IAV laboratory strain A/Puerto Rico/8/34-NS116-GFP. The following applies: cited from earlier work.

Data on 16 compounds can be found in publication PMC4193892, “3-O-Galloylated Procyanidins from Rumex acetosa L. Inhibit the Attachment of Influenza A Virus” (PLoS ONE, 2014).

Read-outs that look alike come from different tables or passages of the source. A value given as a limit tells only on which side of the number the result lay.

With `Oc1cc(O)c2c(c1)O[C@H](c1ccc(O)c(O)c1)[C@@H](O)C2` [compound 1, (+)-catechin monohydrate], the CC50 at 48 h in “in vitro” was more than 200 µM. In the series on MDCK II cells, the viability at 2 µM was 105 ± 3%, the viability at 20 µM worked out at 102 ± 5% and the viability at 200 µM worked out at 119 ± 9%. Also, the IC50 in series [1] (Influenza A virus, H1N1) is more than 200 µM. Besides, in series [1] (Influenza A virus), the inhibition at 2 µM worked out at 0%, the inhibition at 20 µM turned out to be 0% and the inhibition at 200 µM is 0%.

Turning to `Oc1cc(O)c2c(c1)O[C@H](c1ccc(O)c(O)c1)[C@H](O)C2` [compound 2, (−)-epicatechin], the CC50 at 48 h in “in vitro” is more than 200 µM. Also, in the series with MDCK II cells, the viability at 2 µM was determined as 101 ± 2%, the viability at 20 µM came to 104 ± 4% and the viability at 200 µM came to 124 ± 20%. The compound also came in with an IC50 in series [1] (Influenza A virus, H1N1) of more than 200 µM. In series [1] (Influenza A virus), the inhibition at 2 µM turned out to be 0%, the inhibition at 20 µM was 0% and the inhibition at 200 µM stood at 1 ± 1%.

Compound `Oc1cc(O)c2c(c1)O[C@H](c1cc(O)c(O)c(O)c1)[C@@H](O)C2` [compound 3, gallocatechin] registered a CC50 at 48 h in “in vitro” of more than 200 µM. In addition, in the series on MDCK II cells, the viability at 2 µM worked out at 106 ± 5%, the viability at 20 µM stood at 108 ± 1% and the viability at 200 µM came out at 75 ± 17%. Also, the IC50 in series [1] (Influenza A virus, H1N1) is not above 156 µM. In addition, in series [1] (Influenza A virus), the inhibition at 2 µM is 0%, the inhibition at 20 µM worked out at 0% and the inhibition at 200 µM is 66 ± 5%.

In the series “in vitro”, `Oc1cc(O)c2c(c1)O[C@H](c1cc(O)c(O)c(O)c1)[C@H](O)C2` [compound 4, epigallocatechin] had a CC50 at 48 h of more than 200 µM. In the series with MDCK II cells, the viability at 2 µM turned out to be 101 ± 4%, the viability at 20 µM was 106 ± 1% and the viability at 200 µM is 86 ± 17%. Also, the IC50 in series [1] (Influenza A virus, H1N1) was more than 200 µM. Besides, in series [1] (Influenza A virus), the inhibition at 2 µM turned out to be 0%, the inhibition at 20 µM was found to be 0% and the inhibition at 200 µM was 26 ± 22%.

In “in vitro”, `O=C(O[C@@H]1Cc2c(O)cc(O)cc2O[C@@H]1c1ccc(O)c(O)c1)c1cc(O)c(O)c(O)c1` [compound 5, epicatechin-3-O-gallate] displayed a CC50 at 48 h of 175 µM. Further, in the series with MDCK II cells, the viability at 2 µM is 107 ± 3%, the viability at 20 µM came to 106 ± 4% and the viability at 200 µM was determined as 41 ± 2%. In series [1] (Influenza A virus, H1N1), this compound had an IC50 not above 258 µM. In series [1] (Influenza A virus), the inhibition at 2 µM came out at 0%, the inhibition at 20 µM stood at 1% and the inhibition at 200 µM came out at 38 ± 2%.

Compound `Oc1cc(O)c2c(c1)O[C@H](c1ccc(O)c(O)c1)[C@H](O)[C@H]2c1c(O)cc(O)c2c1O[C@H](c1ccc(O)c(O)c1)[C@H](O)C2` [compound 7, epicatechin-(4β→8)-epicatechin] showed a CC50 at 48 h in “in vitro” (dog) of more than 200 µM. Also, in the series with MDCK II cells, the viability at 2 µM stood at 107 ± 6%, the viability at 20 µM came out at 108 ± 9% and the viability at 200 µM turned out to be 117 ± 8%. Also, the IC50 in series [1] (Influenza A virus, H1N1) was more than 200 µM. In series [1] (Influenza A virus), the inhibition at 2 µM came out at 0%, the inhibition at 20 µM was 0% and the inhibition at 200 µM is 1 ± 1%.

`Oc1cc(O)c2c(c1)O[C@H](c1ccc(O)c(O)c1)[C@H](O)[C@H]2c1c(O)cc2c(c1O)C[C@@H](O)[C@@H](c1ccc(O)c(O)c1)O2` [compound 9, epicatechin-(4β→6)-epicatechin] showed a CC50 at 48 h in “in vitro” (dog) of more than 200 µM. In the series with MDCK II cells, the viability at 2 µM was 100 ± 3%, the viability at 20 µM turned out to be 84 ± 4% and the viability at 200 µM is 57 ± 4%. The same compound gave a concentration for half-maximal inhibition (IC50) in series [1] (Influenza A virus, H1N1) not above 163 µM. Further, in series [1] (Influenza A virus), the inhibition at 2 µM was found to be 0%, the inhibition at 20 µM was determined as 0% and the inhibition at 200 µM stood at 63 ± 4%.

`Oc1cc(O)c2c(c1)O[C@H](c1ccc(O)c(O)c1)[C@H](O)[C@H]2c1c(O)cc(O)c2c1O[C@H](c1ccc(O)c(O)c1)[C@H](O)[C@H]2c1c(O)cc(O)c2c1O[C@H](c1ccc(O)c(O)c1)[C@H](O)C2` [compound 10, epicatechin-(4β→8)-epicatechin-(4β→8)-epicatechin] yielded a CC50 at 48 h in the series “in vitro” (dog) of more than 200 µM. Besides, in the series on MDCK II cells, the viability at 2 µM turned out to be 104 ± 2%, the viability at 20 µM is 99 ± 4% and the viability at 200 µM was found to be 122 ± 6%. The compound further returned an IC50 in series [1] (Influenza A virus, H1N1) of 123 µM. Moreover, in series [1] (Influenza A virus), the inhibition at 2 µM is 0%, the inhibition at 20 µM came to 0% and the inhibition at 200 µM came to 87 ± 5%.

Regarding `Oc1cc(O)c2c(c1)O[C@H](c1ccc(O)c(O)c1)[C@H](O)[C@H]2c1c(O)cc(O)c2c1O[C@H](c1ccc(O)c(O)c1)[C@H](O)[C@H]2c1c(O)cc(O)c2c1O[C@H](c1ccc(O)c(O)c1)[C@H](O)[C@H]2c1c(O)cc(O)c2c1O[C@H](c1ccc(O)c(O)c1)[C@H](O)C2` [compound 11, epicatechin-(4β→8)-epicatechin-(4β→8)-epicatechin-(4β→8)-epicatechin], in the series “in vitro” (dog), the CC50 at 48 h is more than 200 µM. Further, in the series on MDCK II cells, the viability at 2 µM came to 101 ± 6%, the viability at 20 µM was 86 ± 8% and the viability at 200 µM is 54 ± 9%. The IC50 in series [1] (Influenza A virus, H1N1) is not above 225 µM. In series [1] (Influenza A virus), the inhibition at 2 µM is 0%, the inhibition at 20 µM was 1% and the inhibition at 200 µM was 44 ± 7%.

`O=C(OC[C@H]1O[C@@H](OC(=O)c2cc(O)c(O)c(O)c2)[C@H](OC(=O)c2cc(O)c(O)c(O)c2)[C@@H](OC(=O)c2cc(O)c(O)c(O)c2)[C@@H]1OC(=O)c1cc(O)c(O)c(O)c1)c1cc(O)c(O)c(O)c1` [compound 12, 1,2,3,4,6-penta-O-galloyl-β-D-glucose, reference compound]: the CC50 at 48 h in “in vitro” turned out to be 83 µM. Besides, in the series on MDCK II cells, the viability at 2 µM worked out at 91 ± 7%, the viability at 20 µM came to 57 ± 14% and the viability at 200 µM stood at 37 ± 3%. Moreover, the IC50 in series [1] was not above 22 µM. In series [1] (Influenza A virus, H1N1), this compound displayed an IC50 of 22 µM. Further, in series [1] (Influenza A virus), the inhibition at 2 µM was 3 ± 3%, the inhibition at 20 µM turned out to be 46 ± 9% and the inhibition at 200 µM is 35 ± 1%.

Consider `O=C1O[C@H]2[C@@H]3OC(=O)c4cc(O)c(O)c(O)c4-c4c(cc(O)c(O)c4O)C(=O)OC[C@H]2O[C@@H](OC(=O)c2cc(O)c(O)c(O)c2)[C@@H]3OC(=O)c2cc(O)c(O)c3c2[C@@H]2C1=CC(=O)[C@](O)(O3)C2(O)O` [compound 13, geraniin, reference compound], for which the CC50 at 48 h in “in vitro” (dog) worked out at 162 µM. In the series on MDCK II cells, the viability at 2 µM was found to be 99 ± 1%, the viability at 20 µM was 107 ± 2% and the viability at 200 µM worked out at 35 ± 3%. The IC50 in series [1] (Influenza A virus, H1N1) is not above 388 µM. Also, in series [1] (Influenza A virus), the inhibition at 2 µM stood at 0%, the inhibition at 20 µM is 1 ± 1% and the inhibition at 200 µM was 25%.

Consider `O=C(O[C@@H]1O[C@@H]2COC(=O)c3cc(O)c(O)c(O)c3-c3c(cc(O)c(O)c3O)C(=O)O[C@H]([C@H]1O)[C@@H]2O)c1cc(O)c(O)c(O)c1` [compound 14, corilagin, reference compound], for which the CC50 at 48 h in the series “in vitro” (dog) came to 120 µM. Further, in the series with MDCK II cells, the viability at 2 µM was determined as 101 ± 1%, the viability at 20 µM is 103 ± 1% and the viability at 200 µM is 8 ± 1%. In series [1], the IC50 result was “uncalc. ^3”. In series [1] (Influenza A virus), the inhibition at 2 µM is 0%, the inhibition at 20 µM came out at 1% and the inhibition at 200 µM amounted to 3 ± 2%.

`O=c1oc2c(O)c(O)cc3c(=O)oc4c(O)c(O)cc1c4c23` [compound 15, ellagic acid, reference compound]: in the series “in vitro”, the CC50 at 48 h is more than 200 µM. In addition, in the series on MDCK II cells, the viability at 2 µM amounted to 106 ± 1%, the viability at 20 µM came out at 110 ± 3% and the viability at 200 µM turned out to be 108 ± 2%. The half-maximal inhibitory concentration (IC50) in series [1] (Influenza A virus, H1N1) was more than 200 µM. Also, in series [1] (Influenza A virus), the inhibition at 2 µM amounted to 0%, the inhibition at 20 µM was 1 ± 1% and the inhibition at 200 µM came out at 4 ± 1%.

Take `O=C(/C=C/c1ccc(O)c(O)c1)O[C@H](Cc1ccc(O)c(O)c1)C(=O)O` [compound 16, rosmarinic acid, reference compound]: the CC50 at 48 h in “in vitro” is more than 200 µM. For the same compound, in the series with MDCK II cells, the viability at 2 µM worked out at 102 ± 1%, the viability at 20 µM stood at 103 ± 1% and the viability at 200 µM stood at 102 ± 1%. The 50% inhibitory concentration (IC50) in series [1] (Influenza A virus, H1N1) was more than 200 µM. Besides, in series [1] (Influenza A virus), the inhibition at 2 µM came to 0%, the inhibition at 20 µM worked out at 0% and the inhibition at 200 µM was 1 ± 1%.

`O=C(O)c1cc(O)c(O)c(O)c1` [compound 17, gallic acid monohydrate, reference compound]: in “in vitro”, the CC50 at 48 h was determined as 197 µM. Also, in the series with MDCK II cells, the viability at 2 µM is 106 ± 5%, the viability at 20 µM was determined as 107 ± 8% and the viability at 200 µM worked out at 49 ± 18%. In series [1] (Influenza A virus, H1N1), this compound displayed an IC50 of more than 200 µM. For the same compound, in series [1] (Influenza A virus), the inhibition at 2 µM is 0%, the inhibition at 20 µM is -1% and the inhibition at 200 µM turned out to be 14 ± 11%. Besides, the “effect on virus replication” value in the series with IAV(H1N1)pdm09 is given as “only little effect”. In addition, the IC50 on IAV neuraminidase is more than 500 µM. For the same compound, the EC50 in series [2] was approximately 50 µM.

Compound `Oc1cccc(O)c1O` [compound 18, pyrogallol, reference compound] showed a CC50 at 48 h in the series “in vitro” (dog) of 176 µM. Moreover, in the series with MDCK II cells, the viability at 2 µM was determined as 98 ± 4%, the viability at 20 µM worked out at 96 ± 1% and the viability at 200 µM amounted to 43 ± 1%. This compound gave an IC50 in series [1] (Influenza A virus, H1N1) not above 241 µM. Also, in series [1] (Influenza A virus), the inhibition at 2 µM was found to be 0%, the inhibition at 20 µM was 7 ± 3% and the inhibition at 200 µM came to 42 ± 1%.
